Laboratory results from patent publication US20190365799A1, “THERAPIES FOR THE TREATMENT OF LIDOCAINE-INEFFECTIVE AND HYPOKALEMIC CONDITIONS” (AlkaliDx, Inc., priority 2016, published 2019).
“Also recorded” adds a separate entry of the source.

Tests used:
[1] = tested on: sodium channel in the sensory neurons; settings: local anesthesia; Rozanski et al. 1988, Nakai et al. 2000; cited from earlier work
[2] = oral potassium salt therapy, general statement; cited from earlier work
[3] = tested on: patients with Lidocaine-Ineffective Conditions; test: Off-label treatment of patients with lidocaine-ineffective conditions with potassium or potassium-elevating drugs (clinical experience, patient reports); type: in vivo, human
Method: The condition is a chronic one, and patients benefit from increasing the serum potassium both prophylactically and acutely. I have discovered that patients with such “Lidocaine-Ineffective Conditions” that are treated with the compositions and methods of this invention (e.g., potassium supplementation or potassium-elevating agents) derive a significant therapeutic benefit.
Based on our research and discussions with us, patients with lidocaine-ineffective conditions have been treated with potassium and potassium-elevating drugs under the care of their personal physician in off-label use.

[4] = clinical experience with 15 patients, potassium supplementation

In the case of `CCN(CC)CC(=O)Nc1c(C)cccc1C` [lidocaine], the “share of the population for which lidocaine is ineffective” value [1] is listed as 2.7-11%.

In the case of `[Cl-].[K+]` [potassium chloride], the gastric tolerability [2] is given as “usually results in stomach upset and gastric pain; also recorded: regularly causes gastric upset”.

For `O=C([O-])[C@H](O)[C@@H](O)[C@H](O)[C@H](O)CO.[K+]` [potassium gluconate], the gastric tolerability [2] is given as “better tolerated”.

With `[K+]` [potassium] the nervous system sensitivity [3, 4] was “restore the normal level of nervous system sensitivity”, the “symptoms of ADHD” value [3, 4] was “suppresses the symptoms of ADHD” and the “patient-reported effect of treatment” value ([3]; off-label use under care of personal physician, anecdotal patient reports) was “nothing short of miraculous; also recorded: stopped fighting with their teacher”. For the same compound, the “persistence of effect over time” value ([3]; off-label use, same dose, middle-aged person) was “continued to be as effective, at the same dose, after many months”.
